The subject of experiment [1] is Human CMV (Tanaka strain). In words: Inhibitory activity against human CMV infection and proliferation in HELF cells (fluorescence staining). It is filed as cell-based, Human cytomegalo virus. As to the method: (Method) LF derived peptide was dissolved in 2% serum added MEM medium to give five mg/ml solution, filtered and sterilized to make a stock solution. The stock solution was diluted with 2% serum added MEM medium on use. Samples containing human embryo lung fibroblast cells (HELF cells) were suspended in 2% serum added MEM medium and incubated for 10 minutes. The cells were collected by centrifugation, washed twice with 2% serum added MEM medium and suspended in 2% serum added MEM medium. Human cytomegalo virus [Human CMV (Tanaka strain)] was added, incubated for 24 hrs., fluorescence stained with human CMV positive serum and the adsorption rate of human CMV to the cells was determined.
The results are judged from the numbers of fluorescent stained cells per one cover slip.

In experiment [2] the test system is influenza virus A/PR/8/34. The following applies: 100 μl of one mg/ml solution in allantoic cavity three hours before virus; average of five eggs.
For experiment [3], the system named is mouse cytomegalo virus (mouse CMV). Put plainly: In vivo inhibitory activity against mouse CMV infection (survival of mice). The following applies: after 10 days. Here is the method:
(Method) Male Balbc/AJcl mice, 4-week-old (10 in one group) were used. The sample was dissolved in phosphate buffer saline solution (PBS) and intraperitoneally administered to mice.

Experiment [4] deals with HIV (HTLV-IIIB). Put plainly: Inhibitory activity against HIV infection and proliferation in MT-4 cells (indirect fluorescence antibody method). The following applies: three days, positive control 26.0%. The experiment is classed as cell-based, human immunodeficiency virus (HIV). Here is the method: (Method) Cultured supernatant of MOLT-4/HTLV-IIIB cells, a HTLV-IIIB persistent infected strain of HIV, was used as a viral solution. The supernatant was kept at -80° C. Human T cell line MT-4 was used for the test. MT-4 was subcultured in RPMI 1640 medium containing 10% fetal calf serum (FCS). Sample, LF derived peptide, was dissolved in RPMI 1640 medium and one ml of the diluted solution at various concentrations was added to the cells. The inoculated MT-4 test sample was incubated for 60 minutes and infected with HIV at a concentration of moi […]=0.01 and one ml of the cell solution adjusted at a cell density of 3×10^5 cells/ml was added. The cells were cultured for three days : and HIV infected cells were determined with an indirect fluorescence antibody method.
HIV infected cells were determined by the indirect fluorescence antibody method using HIV infected patient serum as a primary antibody. […] HIV infected MT-4 cells cultured without addition of the sample was used as a positive control and cells without addition of viral solution was cultured to make a negative control group.

In experiment [5] the test system is mouse cytomegalo virus (mouse CMV). Put plainly: Infection protective test against mouse CMV by the time of administration. The experiment is classed as in vivo. The settings on record: mice, 0.10 g/kg i.p., after 10 days. Here is the method:
(Method) Male Balbc/AJcl mice, 4-week-old (10 in one group) were used. The sample was dissolved in phosphate buffer saline solution (PBS) and intraperitoneally administered to mice. […] Timing of administrations of the sample was made 48, 24, six and one hr. before, immediately after, one and six hrs. after the administration.

Bridge positions count the residues as written; N and C are the ends. Peptide text beside a SMILES is read from it.

For the molecule `CC[C@H](C)[C@H](NC(=O)[C@@H]1CSSC[C@H](NC(=O)[C@H](CCCCN)NC(=O)[C@@H](N)[C@@H](C)O)C(=O)N[C@@H](Cc2ccccc2)C(=O)N[C@@H](CCC(N)=O)C(=O)N[C@@H](Cc2c[nH]c3ccccc23)C(=O)N[C@@H](CCC(N)=O)C(=O)N[C@@H](CCCNC(=N)N)C(=O)N[C@@H](CC(N)=O)C(=O)N[C@@H](CCSC)C(=O)N[C@@H](CCCNC(=N)N)C(=O)N[C@@H](CCCCN)C(=O)N[C@@H](C(C)C)C(=O)N[C@@H](CCCNC(=N)N)C(=O)NCC(=O)N2CCC[C@H]2C(=O)N2CCC[C@H]2C(=O)N[C@@H](C(C)C)C(=O)N[C@@H](CO)C(=O)N1)C(=O)N[C@@H](CCCCN)C(=O)N[C@@H](CCCNC(=N)N)C(=O)N[C@@H](CC(=O)O)C(=O)N[C@@H](CO)C(=O)O` [Human LF (18-42)] (H-TKCFQWQRNMRKVRGPPVSCIKRDS-OH; disulfide 3-20), the “Inhibitory rate of human CMV infection” value in experiment [1] (24 hrs., concentration not given) is listed as 95.7%. The “Inhibitory rate (human CMV infection and proliferation)” value came out at 14.7% in experiment [1] (concentration 0.04 mg/ml); 34.9% in experiment [1] (concentration 0.1 mg/ml); 45.0% in experiment [1] (concentration 0.2 mg/ml); 51.9% in experiment [1] (concentration 0.4 mg/ml); 86.0% in experiment [1] (concentration 1.0 mg/ml); 96.1% in experiment [1] (concentration 2.0 mg/ml). Moreover, the “Inhibitory rate of infection and proliferation of influenza virus” value in experiment [2] was found to be 96.9%. Also, the Survival rate in experiment [3] (0.02 g/kg of body weight i.p. 24 hrs. before mouse CMV) came out at 20%; in experiment [3] (0.05 g/kg of body weight i.p. 24 hrs. before mouse CMV), 50%; in experiment [3] (0.10 g/kg of body weight i.p. 24 hrs. before mouse CMV), 100%; in experiment [3] (0.50 g/kg of body weight i.p. 24 hrs. before mouse CMV) it was 100%; in experiment [5] (time of administration 0 hrs.) it was 100%; in experiment [5] (time of administration +1 hrs.), 100%. The Survival rate in experiment [5] (time of administration +6 hrs.) was 60%; in experiment [5] (time of administration -1 hrs.), 100%; in experiment [5] (time of administration -6 hrs.), 100%; in experiment [5] (time of administration -24 hrs.), 100%; in experiment [5] (time of administration -48 hrs.) it was 60%. Besides, the “ratio of stained (HIV infected) cells” value is 17% in experiment [4] (sample 63 μg/ml); 8.8% in experiment [4] (sample 125 μg/ml); 6.7% in experiment [4] (sample 250 μg/ml); 2.9% in experiment [4] (sample 500 μg/ml); 1.1% in experiment [4] (sample 1,000 μg/ml).

Values taken from US5565425A, “Viral infection and proliferation inhibitors” (Snow Brand Milk Products Co., Ltd, priority 1993, dated 1996).
